# Measured values taken from ChEMBL document CHEMBL1201862, “PubChem BioAssay data set” (2004).
#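 Tested at 5 concentrations; 48 h exposure; 96-well plates; endpoints linearly interpolated, else capped at highest concentration. At the GI50, growth is halved.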 The source made the active and inactive calls. No stated cut-off is given here; in the data, active = GI50 up to about 1.1 µM and inactive = higher.
# Columns and labels:
# Test in all cases: growth of human tumour cells (NCI), 48 h
# SR = system: SR
# M14 = system: M14
# NCI-H23 = system: NCI-H23
# SK-MEL-5 = system: SK-MEL-5
# SN12C = system: SN12C
# HCT-15 = system: HCT-15
# NCI-H460 = system: NCI-H460
# DMS-273 = system: DMS-273
# MOLT-4 = system: MOLT-4
# HOP-62 = system: HOP-62
# COLO 205 = system: COLO 205
# SF-268 = system: SF-268
# UO-31 = system: UO-31
# SNB-19 = system: SNB-19
# NCI-H226 = system: NCI-H226
# OVCAR-3 = system: OVCAR-3
# U-251 = system: U-251
# OVCAR-8 = system: OVCAR-8
# TK-10 = system: TK-10
# SK-MEL-2 = system: SK-MEL-2
# DLD-1 = system: DLD-1
# SF-295 = system: SF-295
# SW-620 = system: SW-620
# HOP-18 = system: HOP-18
# OVCAR-4 = system: OVCAR-4
# UACC-257 = system: UACC-257
# HCT-116 = system: HCT-116
# A549 = system: A549
# XF498 = system: XF498
# M19-MEL = system: M19-MEL
# CCRF-CEM = system: CCRF-CEM
# 786-0 = system: 786-0
# HL-60 = system: HL-60
# OVCAR-5 = system: OVCAR-5
# SNB-78 = system: SNB-78
# Malme-3M = system: Malme-3M
# K562 = system: K562
# HCC 2998 = system: HCC 2998
# HT-29 = system: HT-29
# SF-539 = system: SF-539
# SK-MEL-28 = system: SK-MEL-28
# CAKI-1 = system: CAKI-1
# LOX IMVI = system: LOX IMVI
# RPMI-8226 = system: RPMI-8226
# DMS-114 = system: DMS-114
# NCI-H522 = system: NCI-H522
# SNB-75 = system: SNB-75
# ACHN = system: ACHN
# EKVX = system: EKVX
# KM12 = system: KM12
# NCI/ADR-RES = system: NCI/ADR-RES
# SK-OV-3 = system: SK-OV-3
# IGROV-1 = system: IGROV-1
# UACC-62 = system: UACC-62
# A498 = system: A498
# HOP-92 = system: HOP-92
# MCF7 = system: MCF7
# KM-20L2 = system: KM-20L2
# RXF 393 = system: RXF 393
# LXFL 529 = system: LXFL 529
smiles,measurement,setting,value
COC(=O)c1ccc(OCc2ccc3nc(OC)c(OC)nc3c2)cc1,GI50,SR,> 100 µM (inactive)
same,GI50,M14,> 100 µM (inactive)
same,GI50,NCI-H23,> 100 µM (inactive)
same,GI50,SK-MEL-5,> 100 µM (inactive)
same,GI50,SN12C,> 100 µM (inactive)
same,GI50,HCT-15,> 100 µM
same,GI50,NCI-H460,> 100 µM (inactive)
same,GI50,DMS-273,> 100 µM (inactive)
same,GI50,MOLT-4,> 10 µM (inactive)
same,GI50,HOP-62,68.4 µM (inactive)
same,GI50,COLO 205,> 100 µM (inactive)
same,GI50,SF-268,> 100 µM (inactive)
same,GI50,UO-31,> 100 µM (inactive)
same,GI50,SNB-19,> 100 µM (inactive)
same,GI50,NCI-H226,> 100 µM (inactive)
same,GI50,OVCAR-3,> 100 µM (inactive)
same,GI50,U-251,49.1 µM (inactive)
same,GI50,OVCAR-8,> 100 µM (inactive)
same,GI50,TK-10,> 100 µM (inactive)
same,GI50,SK-MEL-2,> 100 µM (inactive)
same,GI50,DLD-1,> 100 µM (inactive)
same,GI50,SF-295,82.6 µM (inactive)
same,GI50,SW-620,> 100 µM (inactive)
same,GI50,HOP-18,> 100 µM (inactive)
same,GI50,OVCAR-4,> 100 µM (inactive)
same,GI50,UACC-257,> 100 µM (inactive)
same,GI50,HCT-116,89.9 µM (inactive)
same,GI50,A549,> 100 µM (inactive)
same,GI50,XF498,> 100 µM (inactive)
same,GI50,M19-MEL,> 100 µM (inactive)
same,GI50,CCRF-CEM,> 100 µM (inactive)
same,GI50,786-0,> 100 µM (inactive)
same,GI50,HL-60,> 100 µM (inactive)
same,GI50,OVCAR-5,> 100 µM (inactive)
same,GI50,SNB-78,> 100 µM (inactive)
same,GI50,Malme-3M,> 100 µM (inactive)
same,GI50,K562,> 100 µM (inactive)
same,GI50,HCC 2998,> 100 µM (inactive)
same,GI50,HT-29,> 100 µM (inactive)
same,GI50,SF-539,> 100 µM (inactive)
same,GI50,SK-MEL-28,> 100 µM (inactive)
same,GI50,CAKI-1,> 100 µM (inactive)
same,GI50,LOX IMVI,> 100 µM (inactive)
same,GI50,RPMI-8226,> 100 µM (inactive)
same,GI50,DMS-114,52.8 µM (inactive)
same,GI50,NCI-H522,34 µM (inactive)
same,GI50,SNB-75,> 100 µM (inactive)
same,GI50,ACHN,> 100 µM (inactive)
same,GI50,EKVX,> 100 µM (inactive)
same,GI50,KM12,> 100 µM (inactive)
COc1ccc(CC(N)=O)cc1OC,GI50,NCI/ADR-RES,> 1250 µM (inactive)
same,GI50,NCI-H23,> 1250 µM (inactive)
same,GI50,SK-MEL-5,> 1250 µM (inactive)
same,GI50,SN12C,> 1250 µM (inactive)
same,GI50,SK-OV-3,> 1250 µM (inactive)
same,GI50,HCT-15,1090 µM
same,GI50,IGROV-1,> 1250 µM (inactive)
same,GI50,NCI-H460,> 1250 µM (inactive)
same,GI50,DMS-273,> 1250 µM (inactive)
same,GI50,MOLT-4,> 1250 µM (inactive)
same,GI50,UACC-62,> 1250 µM (inactive)
same,GI50,HOP-62,> 818 µM (inactive)
same,GI50,COLO 205,> 1250 µM (inactive)
same,GI50,SF-268,> 1250 µM (inactive)
same,GI50,UO-31,> 1250 µM (inactive)
same,GI50,SNB-19,> 1250 µM (inactive)
same,GI50,NCI-H226,> 1250 µM (inactive)
same,GI50,OVCAR-3,> 1250 µM (inactive)
same,GI50,U-251,> 1250 µM (inactive)
same,GI50,OVCAR-8,198 µM (inactive)
same,GI50,SK-MEL-2,> 1250 µM (inactive)
same,GI50,A498,> 1250 µM (inactive)
same,GI50,DLD-1,> 1250 µM (inactive)
same,GI50,SF-295,> 1250 µM (inactive)
same,GI50,SW-620,> 1250 µM (inactive)
same,GI50,HOP-18,881 µM (inactive)
same,GI50,OVCAR-4,> 1250 µM (inactive)
same,GI50,UACC-257,703 µM (inactive)
same,GI50,HOP-92,753 µM (inactive)
same,GI50,HCT-116,> 1250 µM (inactive)
same,GI50,MCF7,> 1250 µM (inactive)
same,GI50,A549,> 1250 µM (inactive)
same,GI50,XF498,> 879 µM (inactive)
same,GI50,M19-MEL,> 1250 µM (inactive)
same,GI50,CCRF-CEM,> 1250 µM (inactive)
same,GI50,HL-60,> 1150 µM (inactive)
same,GI50,OVCAR-5,> 853 µM (inactive)
same,GI50,KM-20L2,> 1140 µM (inactive)
same,GI50,SNB-78,> 1250 µM (inactive)
same,GI50,RXF 393,> 1250 µM (inactive)
same,GI50,Malme-3M,> 1250 µM (inactive)
same,GI50,K562,> 1250 µM (inactive)
same,GI50,HCC 2998,> 1250 µM (inactive)
same,GI50,HT-29,> 1250 µM (inactive)
same,GI50,SF-539,> 1250 µM (inactive)
same,GI50,SK-MEL-28,> 1250 µM (inactive)
same,GI50,CAKI-1,564 µM (inactive)
same,GI50,LOX IMVI,> 1250 µM (inactive)
same,GI50,RPMI-8226,> 1250 µM (inactive)
same,GI50,DMS-114,> 1250 µM (inactive)
same,GI50,NCI-H522,> 1250 µM (inactive)
same,GI50,SNB-75,769 µM (inactive)
same,GI50,EKVX,> 1250 µM (inactive)
same,GI50,KM12,> 1250 µM (inactive)
Cc1c2c(cc3c1C(=O)C(=O)C1=C3OC[C@@H]1C)C(C)(C)CCC2,GI50,SR,11.6 µM (inactive)
same,GI50,M14,13.9 µM (inactive)
same,GI50,NCI-H23,14.8 µM (inactive)
same,GI50,SK-MEL-5,13.3 µM (inactive)
same,GI50,SN12C,16.8 µM (inactive)
same,GI50,SK-OV-3,41.9 µM (inactive)
same,GI50,LXFL 529,16 µM (inactive)
same,GI50,HCT-15,14.2 µM
same,GI50,IGROV-1,19.7 µM (inactive)
same,GI50,NCI-H460,13.7 µM (inactive)
same,GI50,DMS-273,14.4 µM (inactive)
same,GI50,MOLT-4,12.4 µM (inactive)
same,GI50,UACC-62,13.2 µM (inactive)
same,GI50,HOP-62,21.5 µM (inactive)
same,GI50,COLO 205,7.29 µM (inactive)
same,GI50,SF-268,14.1 µM (inactive)
same,GI50,UO-31,18.7 µM (inactive)
same,GI50,SNB-19,22.1 µM (inactive)
same,GI50,OVCAR-3,13.9 µM (inactive)
same,GI50,U-251,16.2 µM (inactive)
same,GI50,OVCAR-8,18.2 µM (inactive)
same,GI50,TK-10,26.5 µM (inactive)
same,GI50,SK-MEL-2,6.15 µM (inactive)
same,GI50,A498,22.3 µM (inactive)
same,GI50,DLD-1,18.7 µM (inactive)
same,GI50,SF-295,14.5 µM (inactive)
same,GI50,SW-620,15.1 µM (inactive)
same,GI50,HOP-18,17.1 µM (inactive)
same,GI50,OVCAR-4,17.9 µM (inactive)
same,GI50,UACC-257,15.1 µM (inactive)
same,GI50,HOP-92,21.3 µM (inactive)
same,GI50,HCT-116,13.8 µM (inactive)
same,GI50,A549,13 µM (inactive)
same,GI50,XF498,29.9 µM (inactive)
same,GI50,M19-MEL,2.64 µM (inactive)
same,GI50,CCRF-CEM,18 µM (inactive)
same,GI50,786-0,23.4 µM (inactive)
same,GI50,HL-60,10.3 µM (inactive)
same,GI50,OVCAR-5,21.5 µM (inactive)
same,GI50,KM-20L2,19.5 µM (inactive)
same,GI50,RXF 393,17.9 µM (inactive)
same,GI50,Malme-3M,15.6 µM (inactive)
same,GI50,K562,14.9 µM (inactive)
same,GI50,HCC 2998,20.4 µM (inactive)
same,GI50,HT-29,16.6 µM (inactive)
same,GI50,SF-539,16.3 µM (inactive)
same,GI50,SK-MEL-28,14 µM (inactive)
same,GI50,CAKI-1,19.3 µM (inactive)
same,GI50,LOX IMVI,7.43 µM (inactive)
same,GI50,DMS-114,16.8 µM (inactive)
same,GI50,SNB-75,26.1 µM (inactive)
same,GI50,ACHN,16 µM (inactive)
same,GI50,EKVX,20.9 µM (inactive)
same,GI50,KM12,11.9 µM (inactive)
